Assay results as given in article PMC5622107, “Small molecule inhibition of cGAS reduces interferon expression in primary macrophages from autoimmune mice” (Nature Communications, 2017).

How the values were obtained:
[1] = target: T1, m-cGAS (Mus musculus, UniProt Q8C6L5); test: Kinetics of m-cGAS in the presence of RU.365 (RF-MS); assay type: biochemical
T1 construct: recombinant full-length mouse cGAS in reaction buffer; His6-SUMO (N, cleaved yes); made in house; host or cells: E. coli BL21(DE3) RIL
Description: Kinetics parameters of cGAMP formation were determined in the reaction mixtures carried out in 20 μl volumes in 384 small volume deep well polypropylene plates. The final concentration of m-cGAS enzyme and dsDNA were 60 nM and 300 nM, respectively. To determine if RU.365 was competitive against ATP and/or GTP, different concentrations of RU.365 ranging from 0.8 µM to 6.3 µM were tested, keeping one substrate fixed at 300 µM while varying the other one. Apparent K m ^app and apparent V max ^app values were also calculated in the presence and absence of the small molecule. RU.365 was diluted by half in DMSO for a total of four dilutions where the highest final concentration in the assay was 6.3 μM. Ten microliters of reaction buffer composed of 20 mM Tris-HCl pH 7.4, 150 mM NaCl, 5 mM MgCl2, and 0.01% Tween-20 were dispensed per well using a Thermo Multidrop Combi dispenser (Thermo Scientific). The liquid was collected at the well bottom by centrifugation for 30 s at 180×g. In all, 0.1 μl of RU.365 serially diluted in DMSO were dispensed with a Janus 384 MDT NanoHead (PerkinElmer).
Each reaction containing a variable substrate concentration was performed in a different plate. A separate column containing different amounts of cGAMP was also included in each plate in order to construct the calibration curve and calculate the µmoles of product formed. Twenty different master mix solutions were prepared in reaction buffer supplemented with 2 mM DTT and 1.2 µM dsDNA. Of these, Ten master mix solutions were prepared with different concentrations of GTP ranging from 2.36 µM to 1.2 mM while keeping the concentration of ATP fixed at 1.2 mM and vice versa for the other 10 master mix solutions. Five microliters of these solutions with variable substrate concentration were added for each reaction. Finally, the reaction was started by adding 5 μl of 0.24 μM recombinant full-length mouse cGAS in reaction buffer supplemented with 2 mM DTT to each well of the plate followed by centrifugation for 30 s at 180×g and incubation for 120 min at room temperature. The reaction was stopped by addition of 60 μl of 0.5% (v/v) formic acid per well. The plates were centrifuged for 30 s at 180×g and sealed with a Velocity11 PlateLoc thermal plate sealer. To calculate IC50 log (inhibitor) vs. response, a variable slope non-linear fit from GraphPad Prism (7.01) was used, using three replicate experiments; error bars represent SD. The kinetics parameters were obtained fitting the curves to an allosteric sigmoidal nonlinear fit using the same software.

[2] = tested on: RAW KO-cGAS reporter cells; test: RAW KO-cGAS reporter cells stimulated with cGAMP; assay type: cell-based, mouse
Description: The sequence and annealing conditions of the dsDNA used is described above. Typically, 0.4 µg or 0.6 µg of dsDNA was used to stimulate RAW-Lucia ISG-KO-TREX1/ISG-KO-cGAS or RAW-Lucia ISG cells, respectively, which equated to 90% of maximal luciferase activity observed. dsDNA stimulation of RAW macrophages and subsequent luciferase measurements were performed with or without the addition of small molecules at indicated concentrations in each figure, or with DMSO as vehicle control. For the dose curve experiments, serial dilutions of inhibitors were applied to 6.7 × 10^5 cells, plated in 24-well dishes, and co-stimulated with 0.4 µg of dsDNA. In subsequent experiments using inhibitors in RAW cells, the small molecules were used at concentrations representing the derived EC75 values, while co-stimulated with one of the following: 0.4 µg dsDNA, 50 nM 5′ppp-HP20 hairpin RNA (a kind gift from Dr Anna Pyle, Yale University; sequence located in Supplementary Table 5), 10 µM cGAMP, or 100 U ml^−1 murine recombinant Ifnb (R&D Systems). dsDNA was transfected using Lipofectamine LTX. 5′ppp-HP20 RNA was transfected using Lipofectamine 2000. Cells were harvested 24 h post-transfection, washed with PBS, and lysed in 1× Luciferase Cell Lysis Buffer (Pierce).

[3] = varying ATP, GTP fixed, RU.365 0.8 µM
[4] = varying ATP, GTP fixed, RU.365 1.6 µM
[5] = varying ATP, GTP fixed, RU.365 3.2 µM
[6] = varying ATP, GTP fixed, RU.365 6.3 µM
[7] = varying GTP, ATP fixed, RU.365 0.8 µM
[8] = varying GTP, ATP fixed, RU.365 1.6 µM
[9] = varying GTP, ATP fixed, RU.365 3.2 µM
[10] = varying GTP, ATP fixed, RU.365 6.3 µM

T1 sequence (Q8C6L5 whole entry): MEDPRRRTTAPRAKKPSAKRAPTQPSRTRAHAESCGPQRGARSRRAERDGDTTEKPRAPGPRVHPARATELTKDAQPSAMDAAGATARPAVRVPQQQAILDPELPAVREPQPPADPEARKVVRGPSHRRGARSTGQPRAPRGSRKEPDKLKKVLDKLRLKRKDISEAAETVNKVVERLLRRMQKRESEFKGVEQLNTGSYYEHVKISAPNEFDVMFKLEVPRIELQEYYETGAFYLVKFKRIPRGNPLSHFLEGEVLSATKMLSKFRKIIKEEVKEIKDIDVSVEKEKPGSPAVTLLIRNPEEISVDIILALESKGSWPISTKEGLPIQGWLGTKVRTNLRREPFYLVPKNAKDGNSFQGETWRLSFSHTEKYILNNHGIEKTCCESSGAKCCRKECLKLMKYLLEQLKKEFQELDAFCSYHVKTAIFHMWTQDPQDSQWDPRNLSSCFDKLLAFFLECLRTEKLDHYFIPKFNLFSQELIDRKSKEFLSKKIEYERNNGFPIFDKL

| mechanism of inhibition against ATP or GTP [1] | Kmapp [1, 3] | kcat [1, 3] | Kmapp [1, 4] | kcat [1, 4] | Kmapp [1, 5] | kcat [1, 5] | Kmapp [1, 6] | kcat [1, 6] | Kmapp [1, 7] | kcat [1, 7] | Kmapp [1, 8] | kcat [1, 8] | Kmapp [1, 9] | kcat [1, 9] | Kmapp [1, 10] | kcat [1, 10] | SMILES | inhibition of reporter activity [2] |
| --- | --- | --- | --- | --- | --- | --- | --- | --- | --- | --- | --- | --- | --- | --- | --- | --- | --- | --- |
| non-competitive inhibitor | 109.1 µM | 0.283 s⁻¹ | 115.5 µM | 0.233 s⁻¹ | 113.4 µM | 0.152 s⁻¹ | 107.3 µM | 0.0717 s⁻¹ | 77.8 µM | 0.283 s⁻¹ | 89.7 µM | 0.233 s⁻¹ | 79.7 µM | 0.152 s⁻¹ | 89.4 µM | 0.0717 s⁻¹ | Cc1nn(-c2nc3ccccc3[nH]2)c(O)c1C1OC(=O)c2ccccc21 (stereo not drawn) [RU166365] | – |
| – | – | – | – | – | – | – | – | – | – | – | – | – | – | – | – | – | Cc1nn(-c2nc3ccc(Cl)c(Cl)c3[nH]2)c(O)c1C1OC(=O)c2ccccc21 (stereo not drawn) [RU320521, 3-[1-(6,7-dichloro-1H-benzimidazol-2-yl)-5-hydroxy-3-methyl-pyrazol-4-yl]-3H-isobenzofuran-1-one] | did not show any significant inhibition of reporter activity |
